Literature values as cited in patent US20230124124A1, “COMPOSITIONS AND METHODS FOR MYOPIA CONTROL AND ORTHOKERATOLOGY LENSES TREATMENT” (Ocular Science, Inc., priority 2021, published 2023).

How the values were obtained:
corneas = settings: one week of treatment
[1] = system: human corneal epithelial cells; settings: 0.01% BAK; within hours

aqueous tear production (corneas): significantly reduced | fluorescein staining (corneas): increased | inflammatory cell infiltration (corneas): increased | stromal nerve fiber density (NFD) (corneas): significantly reduced
Substance: benzalkonium chloride [BAK]
effect on human corneal epithelial cells [1]: immediate cell retraction, cessation of normal cytokinesis and mitotic activity, and degeneration of human corneal epithelial cells
